This is an account of results in patent US9133206B2, “Benzodiazepine and pyridodiazepine derivatives” (AbbVie Inc., priority 2010, dated 2015).

The experiment has as its system SK-N-SH human neuroblastoma cells. The experiment can be described thus: Serum Deprivation/JC-1 Mitochondrial Membrane Potential (MMP) Assay. It counts as cell-based. The settings on record: for activation at 3 µM: single dose 3 μM, JC-1 ratio normalized to peak value for 10 μM dimebolin (n=2-4), read-out: JC-1 max % (@ 3 μM); for activation at 3 µM / Emax / JC-1 max %: serum deprivation; for EC50: serum deprivation ~18 hours, JC-1 ratio normalized to peak value for 10 μM dimebolin, single curve fit to mean data of n=2-3; for Emax / JC-1 max %: percent maximal intensity in JC-1 ratio normalized to peak value for 10 μM dimebolin; for Emax: read-out: JC-1 max %. An outline of the steps:
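SK-N-SH cells serum-deprived ~18 h with compound, then stained with JC-1 for 40 min at 37 °C; red (560/595 nm) to green (485/535 nm) ratio reports membrane potential. Response normalized to peak from 10 μM dimebolin; EC50 from fit to mean of n=2–3, or single-dose 3 μM; DMSO ≤1%.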

Take `CN1CCN2c3ccccc3CN(C3CCN(C(=O)c4ccccc4)CC3)CC2C1` (centres unmarked) [Example 173, [4-(3-methyl-1,2,3,4,4a,5-hexahydropyrazino[1,2-a][1,4]benzodiazepin-6(7H)-yl)piperidin-1-yl](phenyl)methanone]: where the note is “Homo sapiens”, the activation at 3 µM is 68%.
`Fc1ccc(CN2CCN3c4ccccc4CN(Cc4ccc(Br)cc4)C[C@H]3C2)cc1` (single isomer, unassigned) [Example 61]: the EC50 (Homo sapiens, SK-N-SH, 18 h) was 2.57 µM. In addition, where the note is “Homo sapiens, SK-N-SH”, the Emax was determined as 213%.
For `Brc1ccc(CN2CCC3CN(Cc4ccccc4)CCN3c3ccccc32)cc1` (centres unmarked) [Example 47, 3-benzyl-7-(4-bromobenzyl)-1,2,3,4,4a,5,6,7-octahydropyrazino[1,2-a][1,5]benzodiazepine], in that order: 2.78 µM and 273%.
Turning to `Brc1ccc(CN2Cc3ccccc3N3CCNCC3C2)cc1` (centres unmarked) [Example 71, 6-(4-bromobenzyl)-1,2,3,4,4a,5,6,7-octahydropyrazino[1,2-a][1,4]benzodiazepine], for the setting “Homo sapiens, SK-N-SH, 18 h”, the EC50 was 7.85 µM. The Emax (Homo sapiens, SK-N-SH) was found to be 105%.
As to `O=C(C1CCCO1)N1Cc2ccccc2N2CCN(Cc3ccccc3)CC2C1` (centres unmarked) [Example 118, (3-benzyl-1,2,3,4,4a,5-hexahydropyrazino[1,2-a][1,4]benzodiazepin-6(7H)-yl)(tetrahydrofuran-2-yl)methanone], for the setting “Homo sapiens”, the activation at 3 µM was determined as 84%.
As for `COc1ccccc1CN1Cc2ccccc2N2CCN(Cc3ccccc3)CC2C1` (centres unmarked) [Example 133, 3-benzyl-6-(2-methoxybenzyl)-1,2,3,4,4a,5,6,7-octahydropyrazino[1,2-a][1,4]benzodiazepine], the EC50 (Homo sapiens, SK-N-SH, 18 h) was determined as 3.64 µM. Further, the Emax (Homo sapiens, SK-N-SH) was found to be 163%.
As to `O=C(NCc1ccccn1)N1Cc2ccccc2N2CCN(Cc3ccccc3)CC2C1` (centres unmarked) [Example 168, 3-benzyl-N-(pyridin-2-ylmethyl)-1,2,3,4,4a,5-hexahydropyrazino[1,2-a][1,4]benzodiazepine-6(7H)-carboxamide], under “Homo sapiens”, the activation at 3 µM is 259%.
Still for that read-out and setting: then `O=C(CC(F)(F)F)N1Cc2ccccc2N2CCN(Cc3ccccc3)CC2C1` (centres unmarked) [Example 117, 1-(3-benzyl-1,2,3,4,4a,5-hexahydropyrazino[1,2-a][1,4]benzodiazepin-6(7H)-yl)-3,3,3-trifluoropropan-1-one], with 70%.
Regarding `Brc1ccc(CN2Cc3ccccc3N3CCN(Cc4ccccc4)CC3C2)cc1` (single isomer, unassigned; (-)) [Example 18, (−)-3-benzyl-6-(4-bromobenzyl)-1,2,3,4,4a,5,6,7-octahydropyrazino[1,2-a][1,4]benzodiazepine], the JC-1 max % was 178% and the half-maximal effective concentration (EC50) was found to be 2.72 µM.
`O=C(c1ccc(F)cc1)N1Cc2ccccc2N2CCN(Cc3ccccc3)CC2C1` (centres unmarked) [Example 10, (3-benzyl-1,2,3,4,4a,5-hexahydropyrazino[1,2-a][1,4]benzodiazepin-6(7H)-yl)(4-fluorophenyl)methanone]: the EC50 (Homo sapiens, SK-N-SH, 18 h) amounted to 2.74 µM. For the setting “Homo sapiens, SK-N-SH”, the Emax turned out to be 248%.
For `O=C(Cn1ncccc1=O)N1CCC2CN(Cc3ccccc3)CCN2c2ccccc21` (centres unmarked) [Example 78, 2-[2-(3-benzyl-2,3,4,4a,5,6-hexahydropyrazino[1,2-a][1,5]benzodiazepin-7(1H)-yl)-2-oxoethyl]pyridazin-3(2H)-one], in that order: 8.55 µM and 143%.
For `Clc1ccc(CCN2CCC3CN(Cc4ccccc4)CCN3c3ccccc32)cc1` (centres unmarked) [Example 44, 3-benzyl-7-[2-(4-chlorophenyl)ethyl]-1,2,3,4,4a,5,6,7-octahydropyrazino[1,2-a][1,5]benzodiazepine], in that order: 3 µM and 291%.
For `FC(F)(F)c1ccc(CN2Cc3ccccc3N3CCN(Cc4ccccc4)CC3C2)cc1` (centres unmarked) [Example 21, 3-benzyl-6-[4-(trifluoromethyl)benzyl]-1,2,3,4,4a,5,6,7-octahydropyrazino[1,2-a][1,4]benzodiazepine], in that order: 6.11 µM and 168%.
Consider `Cc1ccccc1CN1Cc2ccccc2N2CCN(Cc3ccccc3)CC2C1` (centres unmarked) [Example 131, 3-benzyl-6-(2-methylbenzyl)-1,2,3,4,4a,5,6,7-octahydropyrazino[1,2-a][1,4]benzodiazepine], for which, for the setting “Homo sapiens, SK-N-SH, 18 h”, the EC50 came to 3.22 µM. Further, for the setting “Homo sapiens, SK-N-SH”, the Emax was determined as 144%.
For the compound `CC1CC1C(=O)N1Cc2ccccc2N2CCN(Cc3ccccc3)CC2C1` (centres unmarked) [Example 116, (3-benzyl-1,2,3,4,4a,5-hexahydropyrazino[1,2-a][1,4]benzodiazepin-6(7H)-yl)(2-methylcyclopropyl)methanone], the activation at 3 µM (Homo sapiens) stood at 198%.
With `c1ccc(CN2CCN3c4ccccc4CN(c4ccccn4)CC3C2)cc1` (centres unmarked) [Example 16, 3-benzyl-6-(pyridin-2-yl)-1,2,3,4,4a,5,6,7-octahydropyrazino[1,2-a][1,4]benzodiazepine], under “Homo sapiens, SK-N-SH, 18 h”, the EC50 was found to be 3.63 µM. Moreover, the Emax (Homo sapiens, SK-N-SH) was 131%.
On to `COc1cccc(CN2Cc3ccccc3N3CCN(Cc4ccccc4)CC3C2)c1` (centres unmarked) [Example 135, 3-benzyl-6-(3-methoxybenzyl)-1,2,3,4,4a,5,6,7-octahydropyrazino[1,2-a][1,4]benzodiazepine], for which the concentration for a half-maximal effect (EC50) (Homo sapiens, SK-N-SH, 18 h) stood at 4.19 µM. Further, the Emax (Homo sapiens, SK-N-SH) was 154%.
With `O=C(c1ccco1)N1Cc2ccccc2N2CCN(Cc3ccccc3)CC2C1` (centres unmarked) [Example 104, (3-benzyl-1,2,3,4,4a,5-hexahydropyrazino[1,2-a][1,4]benzodiazepin-6(7H)-yl)(2-furyl)methanone], under “Homo sapiens”, the activation at 3 µM was found to be 178%.
Turning to `c1ccc(CN2CCN3c4ccccc4N(Cc4ccncc4)CCC3C2)cc1` (centres unmarked) [Example 48, 3-benzyl-7-(pyridin-4-ylmethyl)-1,2,3,4,4a,5,6,7-octahydropyrazino[1,2-a][1,5]benzodiazepine], under “Homo sapiens, SK-N-SH, 18 h”, the concentration giving a half-maximal response (EC50) turned out to be 1.84 µM. Also, the Emax (Homo sapiens, SK-N-SH) was determined as 125%.
Turning to `c1ccc(CN2CCN3c4ccccc4C[N+](Cc4ccccc4)(Cc4ccccc4)CC3C2)cc1` (centres unmarked) [Example 6, 3,6,6-tribenzyl-1,2,3,4,4a,5,6,7-octahydropyrazino[1,2-a][1,4]benzodiazepin-6-ium], the JC-1 max % is 148% and the EC50 was found to be 6.44 µM.
In the case of `CC(C)CCN1Cc2ccccc2N2CCN(Cc3ccccc3)CC2C1` (centres unmarked) [Example 143, 3-benzyl-6-(3-methylbutyl)-1,2,3,4,4a,5,6,7-octahydropyrazino[1,2-a][1,4]benzodiazepine], the activation at 3 µM (Homo sapiens) is 30%.
As to `O=C(NCCc1cccnc1)N1Cc2ccccc2N2CCN(Cc3ccccc3)CC2C1` (centres unmarked) [Example 150, 3-benzyl-N-[2-(pyridin-3-yl)ethyl]-1,2,3,4,4a,5-hexahydropyrazino[1,2-a][1,4]benzodiazepine-6(7H)-carboxamide], the activation at 3 µM (Homo sapiens) came out at 212%.
Same read-out and setting: then `CC(=O)N1CCC(C(=O)N2Cc3ccccc3N3CCN(Cc4ccccc4)CC3C2)CC1` (centres unmarked) [Example 84, 1-{4-[(3-benzyl-1,2,3,4,4a,5-hexahydropyrazino[1,2-a][1,4]benzodiazepin-6(7H)-yl)carbonyl]piperidin-1-yl}ethanone], with 183%.
On the same count and under the same terms, then `CC(C)C(=O)N1Cc2ccccc2N2CCN(Cc3ccccc3)CC2C1` (centres unmarked) [Example 100, 1-(3-benzyl-1,2,3,4,4a,5-hexahydropyrazino[1,2-a][1,4]benzodiazepin-6(7H)-yl)-2-methylpropan-1-one], with 118%.
For the compound `COCCCNC(=O)N1Cc2ccccc2N2CCN(Cc3ccccc3)CC2C1` (centres unmarked) [Example 166, 3-benzyl-N-(3-methoxypropyl)-1,2,3,4,4a,5-hexahydropyrazino[1,2-a][1,4]benzodiazepine-6(7H)-carboxamide], the EC50 (Homo sapiens, SK-N-SH, 18 h) was 0.765 µM. The Emax (Homo sapiens, SK-N-SH) was 181%.
For `c1ccc(CN2CCN3c4ccccc4CN(Cc4ccnc5ccccc45)CC3C2)cc1` (centres unmarked) [Example 36, 3-benzyl-6-(quinolin-4-ylmethyl)-1,2,3,4,4a,5,6,7-octahydropyrazino[1,2-a][1,4]benzodiazepine], in that order: 1.05 µM and 137%.
For `Fc1ccc(CN2CCN3c4ncccc4N(CC4CC4)CCC3C2)cc1` (centres unmarked) [Example 64, 5-(cyclopropylmethyl)-9-(4-fluorobenzyl)-5,6,7,7a,8,9,10,11-octahydropyrazino[1,2-d]pyrido[3,2-b][1,4]diazepine], in that order: 5.66 µM and 139%.
In the case of `O=C(CCN1CCCCC1)N1Cc2ccccc2N2CCN(Cc3ccccc3)CC2C1` (centres unmarked) [Example 111, 1-(3-benzyl-1,2,3,4,4a,5-hexahydropyrazino[1,2-a][1,4]benzodiazepin-6(7H)-yl)-3-(piperidin-1-yl)propan-1-one], the activation at 3 µM (Homo sapiens) was determined as 162%.
For `CC(C)CN1Cc2ccccc2N2CCN(Cc3ccccc3)CC2C1` (centres unmarked) [Example 148, 3-benzyl-6-isobutyl-1,2,3,4,4a,5,6,7-octahydropyrazino[1,2-a][1,4]benzodiazepine], for the setting “Homo sapiens”, the activation at 3 µM is 38%.
Consider `CC(C)(C)OC(=O)N1CCN2c3ccccc3CN(Cc3ccc(Br)cc3)C(=O)C2C1` (centres unmarked) [Example 67, tert-butyl 6-(4-bromobenzyl)-5-oxo-1,2,4a,5,6,7-hexahydropyrazino[1,2-a][1,4]benzodiazepine-3(4H)-carboxylate], for which, where the note is “Homo sapiens, SK-N-SH, 18 h”, the concentration for a half-maximal effect (EC50) worked out at 5.06 µM. Moreover, the Emax (Homo sapiens, SK-N-SH) is 215%.
In the case of `Brc1ccc(CN2Cc3ccccc3N3CCN(Cc4ccccc4)CC3C2)cn1` (centres unmarked) [Example 39, 3-benzyl-6-[(6-bromopyridin-3-yl)methyl]-1,2,3,4,4a,5,6,7-octahydropyrazino[1,2-a][1,4]benzodiazepine], the EC50 (Homo sapiens, SK-N-SH, 18 h) came out at 3.69 µM. Also, the Emax (Homo sapiens, SK-N-SH) stood at 200%.
